Source: ChEMBL document CHEMBL4831497, “Monoacylglycerol lipase (MAGL) inhibitors based on a diphenylsulfide-benzoylpiperidine scaffold” (Eur J Med Chem, 2021)
pIC50, pKi: −log10 of the molar value. Calls of active or inactive are those of the source. The calls are words filed in the database; no cut-off is given here.

Tests used:
[1] = target: T1, Monoglyceride lipase (Homo sapiens) (UniProt Q99685); settings: dose 320.0 nM, time 60.0 min
T1 sequence (whole entry): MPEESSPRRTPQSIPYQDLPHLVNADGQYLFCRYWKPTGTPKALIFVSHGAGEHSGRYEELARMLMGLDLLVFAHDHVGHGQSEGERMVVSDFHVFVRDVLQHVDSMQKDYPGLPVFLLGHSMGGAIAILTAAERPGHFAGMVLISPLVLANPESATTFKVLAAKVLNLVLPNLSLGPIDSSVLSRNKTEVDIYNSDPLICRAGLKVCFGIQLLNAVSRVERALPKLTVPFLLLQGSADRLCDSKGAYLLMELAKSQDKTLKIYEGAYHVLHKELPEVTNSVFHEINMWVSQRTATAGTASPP

KURAMOCHI = assay: Antiproliferative activity against human KURAMOCHI cells assessed as inhibition of cell viability for 96 hrs by cell titre glo luminescence assay; type: functional, cell-based
HT-29 = assay: Antiproliferative activity against human HT-29 cells assessed as inhibition of cell viability for 96 hrs by cell titre glo luminescence assay; type: functional, cell-based; settings: HT-29, 96 h
Monoglyceride lipase [2] = target: T2, Monoglyceride lipase (Homo sapiens, UniProt Q99685)
T2 sequence (Q99685 whole entry): T1 sequence (whole entry)
Description: Inhibition of human recombinant MAGL using 4-NPA as substrate by microplate reader method

MDA-MB-231 = assay: Antiproliferative activity against human MDA-MB-231 cells assessed as inhibition of cell viability for 96 hrs by cell titre glo luminescence assay; type: functional, cell-based; settings: MDA-MB-231, 96 h
[3] = target: T1, Monoglyceride lipase (Homo sapiens); settings: dose 8.0 nM, time 60.0 min
SK-OV-3 = assay: Antiproliferative activity against human SK-OV-3 cells assessed as inhibition of cell viability for 96 hrs by cell titre glo luminescence assay; type: functional, cell-based; settings: SK-OV-3, 96 h
OVCAR-5 = assay: Antiproliferative activity against human OVCAR-5 cells assessed as inhibition of cell viability for 96 hrs by cell titre glo luminescence assay; type: functional, cell-based; settings: OVCAR-5, 96 h
COLO 201 = assay: Antiproliferative activity against human COLO201 cells assessed as inhibition of cell viability for 96 hrs by cell titre glo luminescence assay; type: functional, cell-based; settings: COLO 201, 96 h
COLO 205 = assay: Antiproliferative activity against human COLO205 cells assessed as inhibition of cell viability for 96 hrs by cell titre glo luminescence assay; type: functional, cell-based; settings: COLO 205, 96 h
OVCAR-3 = assay: Antiproliferative activity against human OVCAR-3 cells assessed as inhibition of cell viability for 96 hrs by cell titre glo luminescence assay; type: functional, cell-based; settings: OVCAR-3, 96 h
Monoglyceride lipase [4] = target: T2, Monoglyceride lipase; remark: listed apart in the source
Description: Inhibition of human recombinant MAGL assessed as dissociation constant using 4-NPA as substrate

HCT-116 = assay: Antiproliferative activity against human HCT-116 cells assessed as inhibition of cell viability for 96 hrs by cell titre glo luminescence assay; type: functional, cell-based; settings: HCT-116, 96 h

Compound	inhibition [1]	pIC50 (KURAMOCHI)	pIC50 (HT-29)	pIC50 (Monoglyceride lipase [2])	pIC50 (MDA-MB-231)	inhibition [3]	pIC50 (SK-OV-3)	pIC50 (OVCAR-5)	pIC50 (COLO 201)	pIC50 (COLO 205)	pIC50 (OVCAR-3)	pKi (Monoglyceride lipase [4])	pIC50 (HCT-116)
O=C(c1ccc(Sc2cccc(Cl)c2)cc1)C1CCN(C(=O)c2cc(O)ccc2F)CC1	Active	5.15	5.05	8.82	5.57	Active	5.06	5.43	5.06	5.06	4.92	8.94	5.12
O=C(c1ccc(Cl)cc1)C1CCN(C(=O)c2cccc(O)c2)CC1		4.12	5.16		4.15		4.08	5.00	4.08	4.10	4.03		4.07
O=C(c1ccc(Sc2cccc(C(F)(F)F)c2)cc1)C1CCN(C(=O)c2cc(O)ccc2F)CC1		5.48	5.08		5.27		5.36	6.49	5.54	5.48	5.24		5.48
O=C(c1ccc(Sc2cccc(OC(F)(F)F)c2)cc1)C1CCN(C(=O)c2cc(O)ccc2F)CC1	Active	5.43	5.60	8.73	5.00	Active	5.36	6.11	5.48	5.66	5.07	8.95	5.47
